Source: patent publication US20240368173A1, “TRICYCLIC GPR65 MODULATORS” (PATHIOS THERAPEUTICS LIMITED, priority 2021, published 2024)

The molecules below were run against human recombinant GPR65 (Homo sapiens, UniProt Q8IYL9) (assay: Human GPR65 cAMP HTRF antagonist assay). Settings: not given.
human recombinant GPR65, sequence (Q8IYL9 whole entry): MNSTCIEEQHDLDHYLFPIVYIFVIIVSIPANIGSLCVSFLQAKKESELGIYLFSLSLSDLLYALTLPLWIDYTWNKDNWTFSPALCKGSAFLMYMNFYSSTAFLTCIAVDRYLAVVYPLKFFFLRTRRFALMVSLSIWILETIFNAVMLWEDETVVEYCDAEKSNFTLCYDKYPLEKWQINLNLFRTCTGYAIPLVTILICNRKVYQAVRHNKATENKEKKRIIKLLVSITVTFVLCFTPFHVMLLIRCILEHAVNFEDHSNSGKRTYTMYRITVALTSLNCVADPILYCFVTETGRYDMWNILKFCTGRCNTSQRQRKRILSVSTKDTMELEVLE
Assay type: cell-based
In short: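 1321N1 astrocytoma cells stably expressing hrGPR65, with IBMX and EDTA, were preincubated with compound 30 min at room temperature, then acid-activated at assay pH 7.2 (control pH 7.9) for 30 min. cAMP read by HTRF (665/620 nm ratio); IC50 from 4-parameter fit normalised to high/low controls.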
With `O=C(Nc1cc(Cl)c(Oc2ccc3nonc3c2)cc1F)N1[C@H]2CC[C@@H]1c1n[nH]c(=O)cc1C2` [Compound 294, (6S,9R)-N-(4-(Benzo[c][1,2,5]oxadiazol-5-yloxy)-5-chloro-2-fluorophenyl)-3-oxo-3,5,6,7,8,9-hexahydro-2H-6,9-epiminocyclohepta[c]pyridazine-10-carboxamide] the IC50 was < 500 nM. For `O=C(Nc1cc(Cl)c(-c2ccc(OCCN3CCCCC3)nc2)cc1F)N1[C@H]2CC[C@@H]1c1ccnc(F)c1C2` [Compound 220, (5R,8S)-N-(5-Chloro-2-fluoro-4-(6-(2-(piperidin-1-yl)ethoxy)pyridin-3-yl)phenyl)-1-fluoro-6,7,8,9-tetrahydro-5H-5,8-epiminocyclohepta[c]pyridine-10-carboxamide], the IC50 was < 500 nM. `O=C(Nc1cc(Cl)c(-c2ccsn2)cc1F)N1[C@H]2CC[C@@H]1c1n[nH]c(=O)cc1C2` [Compound 191, (6S,9R)-N-(5-Chloro-2-fluoro-4-(isothiazol-3-yl)phenyl)-3-oxo-3,5,6,7,8,9-hexahydro-2H-6,9-epiminocyclohepta[c]pyridazine-10-carboxamide] was tested, and the IC50 was < 500 nM. With `O=C(Nc1cc(Cl)c(OC2CCC2)cc1F)N1C2CCC1c1n[nH]c(=O)cc1C2` (racemic) [Compound 51, (±)-N-(5-Chloro-4-cyclobutoxy-2-fluorophenyl)-3-oxo-3,5,6,7,8,9-hexahydro-2H-6,9-epiminocyclohepta[c]pyridazine-10-carboxamide] the IC50 was < 500 nM. `O=C(Nc1ccc(Br)c(C(F)(F)F)c1)N1[C@@H]2CC[C@H]1c1n[nH]c(=O)cc1C2` [Compound 48, (6R,9S)-N-(4-Bromo-3-(trifluoromethyl)phenyl)-3-oxo-3,5,6,7,8,9-hexahydro-2H-6,9-epiminocyclohepta[c]pyridazine-10-carboxamide] gave an IC50 of 500 to 5000 nM. For `O=C1c2c(ccnc2F)C2CCC1N2C(=O)Nc1cc(Cl)c(Cl)cc1F` (racemic) [Compound 155, (±)—N-(4,5-Dichloro-2-fluorophenyl)-1-fluoro-9-oxo-6,7,8,9-tetrahydro-5H-5,8-epiminocyclohepta[c]pyridine-10-carboxamide], the IC50 was < 500 nM. With `O=C(Nc1ccc(C(F)(F)F)c(Br)c1)N1[C@H]2CC[C@@H]1c1n[nH]c(=O)cc1C2` [Compound 31, (6S,9R)-N-(3-Bromo-4-(trifluoromethyl)phenyl)-3-oxo-3,5,6,7,8,9-hexahydro-2H-6,9-epiminocyclohepta[c]pyridazine-10-carboxamide] the IC50 was < 500 nM. `O=C(Nc1ccc(Br)c(Cl)c1)N1[C@H]2CC[C@@H]1c1n[nH]c(=O)cc1C2` [Compound 39, (6S,9R)-N-(4-Bromo-3-chlorophenyl)-3-oxo-3,5,6,7,8,9-hexahydro-2H-6,9-epiminocyclohepta[c]pyridazine-10-carboxamide] was tested, and the IC50 was < 500 nM. With `O=C(Nc1cc(Cl)c(Cl)cc1F)N1[C@H]2CC[C@@H]1c1ncc(F)cc1C2` [Compound 98, (6S,9R)-N-(4,5-Dichloro-2-fluorophenyl)-3-fluoro-6,7,8,9-tetrahydro-5H-6,9-epiminocyclohepta[b]pyridine-10-carboxamide] the IC50 was < 500 nM. For `Cn1ncc2cc(-c3cc(F)c(NC(=O)N4[C@H]5CC[C@@H]4c4n[nH]c(=O)cc4C5)cc3Cl)ccc21` [Compound 164, (6S,9R)-N-(5-Chloro-2-fluoro-4-(1-methyl-1H-indazol-5-yl)phenyl)-3-oxo-3,5,6,7,8,9-hexahydro-2H-6,9-epiminocyclohepta[c]pyridazine-10-carboxamide], the IC50 was < 500 nM. For `O=C(Nc1cc(Br)c(Cl)cc1F)N1C2CCC1c1c[nH]c(=O)nc1C2` (racemic) [Compound 15, (±)—N-(5-Bromo-4-chloro-2-fluorophenyl)-2-oxo-3,5,6,7,8,9-hexahydro-2H-5,8-epiminocyclohepta[d]pyrimidine-10-carboxamide], the IC50 was < 500 nM. In the case of `O=C(Nc1cc(-c2ccc3nonc3c2)c(C(F)(F)F)cc1F)N1[C@H]2CC[C@@H]1c1n[nH]c(=O)cc1C2` [Compound 254, (6S,9R)-N-(5-(Benzo[c][1,2,5]oxadiazol-5-yl)-2-fluoro-4-(trifluoromethyl)phenyl)-3-oxo-3,5,6,7,8,9-hexahydro-2H-6,9-epiminocyclohepta[c]pyridazine-10-carboxamide], the IC50 is reported as < 500 nM. In the case of `O=C(Nc1cc(Cl)c(C(F)(F)F)cc1F)N1[C@@H]2CC[C@H]1C(F)(F)c1c2ccnc1F` [Compound 227, (5R,8S)-N-(5-Chloro-2-fluoro-4-(trifluoromethyl)phenyl)-1,9,9-trifluoro-6,7,8,9-tetrahydro-5H-5,8-epiminocyclohepta[c]pyridine-10-carboxamide], the IC50 is reported as < 500 nM. With `O=C(Nc1cc(Cl)c(-c2ccc(OCC(F)(F)F)nc2)cc1F)N1[C@H]2CC[C@@H]1c1c[nH]c(=O)cc1C2` [Compound 241, (6S,9R)-N-(5-Chloro-2-fluoro-4-(6-(2,2,2-trifluoroethoxy)pyridin-3-yl)phenyl)-3-oxo-3,5,6,7,8,9-hexahydro-2H-6,9-epiminocyclohepta[c]pyridine-10-carboxamide] the IC50 was < 500 nM. With `O=C(Nc1cc(Cl)c(C(F)(F)F)cc1F)N1[C@H]2CC[C@@H]1c1n[nH]c(=O)cc1C2` [Compound 18, (6S,9R)-N-(5-Chloro-2-fluoro-4-(trifluoromethyl)phenyl)-3-oxo-3,5,6,7,8,9-hexahydro-2H-6,9-epiminocyclohepta[c]pyridazine-10-carboxamide] the IC50 was < 500 nM. In the case of `O=C(Nc1cc(Cl)c(-c2cccc3nonc23)cc1F)N1[C@H]2CC[C@@H]1c1n[nH]c(=O)cc1C2` [Compound 210, (6S,9R)-N-(4-(Benzo[c][1,2,5]oxadiazol-4-yl)-5-chloro-2-fluorophenyl)-3-oxo-3,5,6,7,8,9-hexahydro-2H-6,9-epiminocyclohepta[c]pyridazine-10-carboxamide], the IC50 is reported as < 500 nM. For `COCCNc1ncc(-c2cc(F)c(NC(=O)N3[C@H]4CC[C@@H]3c3n[nH]c(=O)cc3C4)cc2Cl)cn1` [Compound 121, (6S,9R)-N-(5-Chloro-2-fluoro-4-(2-((2-methoxyethyl)amino)pyrimidin-5-yl)phenyl)-3-oxo-3,5,6,7,8,9-hexahydro-2H-6,9-epiminocyclohepta[c]pyridazine-10-carboxamide], the IC50 was < 500 nM. In the case of `O=C(Nc1cc(Cl)c(-c2ccc(F)nc2)cc1F)N1[C@H]2CC[C@@H]1c1n[nH]c(=O)cc1C2` [Compound 109, (6S,9R)-N-(5-Chloro-2-fluoro-4-(6-fluoropyridin-3-yl)phenyl)-3-oxo-3,5,6,7,8,9-hexahydro-2H-6,9-epiminocyclohepta[c]pyridazine-10-carboxamide], the IC50 is reported as < 500 nM. `O=C(Nc1cc(Cl)c(-c2ccncc2)cc1F)N1[C@H]2CC[C@@H]1c1n[nH]c(=O)cc1C2` [Compound 173, (6S,9R)-N-(5-Chloro-2-fluoro-4-(pyridin-4-yl)phenyl)-3-oxo-3,5,6,7,8,9-hexahydro-2H-6,9-epiminocyclohepta[c]pyridazine-10-carboxamide] was tested, and the IC50 was < 500 nM. Work on `O=C(Nc1cc(Br)c(Cl)cc1F)N1[C@@H]2CC[C@H]1c1n[nH]c(=O)cc1C2` [Compound 38, (6R,9S)-N-(5-Bromo-4-chloro-2-fluorophenyl)-3-oxo-3,5,6,7,8,9-hexahydro-2H-6,9-epiminocyclohepta[c]pyridazine-10-carboxamide] yielded an IC50 of 500 to 5000 nM. `O=C(Nc1cc(Cl)c(OC2CCC2)cc1F)N1[C@H]2CC[C@@H]1c1ccnc(F)c1C2` [Compound 67, (5R,8S)-N-(5-Chloro-4-cyclobutoxy-2-fluorophenyl)-1-fluoro-6,7,8,9-tetrahydro-5H-5,8-epiminocyclohepta[c]pyridine-10-carboxamide] was tested, and the IC50 was < 500 nM. In the case of `O=C(Nc1cc(C(F)(F)F)c(-c2ccc(F)nc2)cc1F)N1[C@H]2CC[C@@H]1c1n[nH]c(=O)cc1C2` [Compound 212, (6S,9R)-N-(2-Fluoro-4-(6-fluoropyridin-3-yl)-5-(trifluoromethyl)phenyl)-3-oxo-3,5,6,7,8,9-hexahydro-2H-6,9-epiminocyclohepta[c]pyridazine-10-carboxamide], the IC50 is reported as < 500 nM.

Same assay, conditions: 1321N1-hrGPR65 cells, cAMP HTRF, assay pH 7.2; read-out: hGPR65 IC50 (Activity of selected compounds according to the invention)
`CC(=O)Nc1ccc(-c2cc(F)c(NC(=O)N3[C@H]4CC[C@@H]3c3n[nH]c(=O)cc3C4)cc2Cl)cn1` [Compound 117, (6S,9R)-N-(4-(6-Acetamidopyridin-3-yl)-5-chloro-2-fluorophenyl)-3-oxo-3,5,6,7,8,9-hexahydro-2H-6,9-epiminocyclohepta[c]pyridazine-10-carboxamide] gave an IC50 of 500 to 5000 nM. In the case of `COCc1ccncc1-c1cc(F)c(NC(=O)N2[C@H]3CC[C@@H]2c2n[nH]c(=O)cc2C3)cc1Cl` [Compound 192, (6S,9R)-N-(5-Chloro-2-fluoro-4-(4-(methoxymethyl)pyridin-3-yl)phenyl)-3-oxo-3,5,6,7,8,9-hexahydro-2H-6,9-epiminocyclohepta[c]pyridazine-10-carboxamide], the IC50 is reported as 500 to 5000 nM. `O=C(Nc1cc(Cl)c(-c2cncc(CO)c2)cc1F)N1[C@H]2CC[C@@H]1c1n[nH]c(=O)cc1C2` [Compound 128, (6S,9R)—N-(5-Chloro-2-fluoro-4-(5-(hydroxymethyl)pyridin-3-yl)phenyl)-3-oxo-3,5,6,7,8,9-hexahydro-2H-6,9-epiminocyclohepta[c]pyridazine-10-carboxamide] was tested, and the IC50 was 500 to 5000 nM. In the case of `O=C(Nc1cc(Br)c(C(F)(F)F)cc1F)N1[C@@H]2CC[C@H]1c1n[nH]c(=O)cc1C2` [Compound 34, (6R,9S)-N-(5-Bromo-2-fluoro-4-(trifluoromethyl)phenyl)-3-oxo-3,5,6,7,8,9-hexahydro-2H-6,9-epiminocyclohepta[c]pyridazine-10-carboxamide], the IC50 is reported as > 5000 nM. `O=C(Nc1c(F)cc(Cl)c(Cl)c1F)N1[C@H]2CC[C@@H]1c1n[nH]c(=O)cc1C2` [Compound 308, (6S,9R)-N-(3,4-Dichloro-2,6-difluorophenyl)-3-oxo-3,5,6,7,8,9-hexahydro-2H-6,9-epiminocyclohepta[c]pyridazine-10-carboxamide] gave an IC50 of 500 to 5000 nM. For `O=C(Nc1ccc(OC(F)(F)F)c(Cl)c1)N1[C@@H]2CC[C@H]1c1n[nH]c(=O)cc1C2` [Compound 45, (6R,9S)-N-(3-Chloro-4-(trifluoromethoxy)phenyl)-3-oxo-3,5,6,7,8,9-hexahydro-2H-6,9-epiminocyclohepta[c]pyridazine-10-carboxamide], the IC50 was > 5000 nM.
